Data: patent publication US20040048791A1, “Method for treating neoplastic cells using cycloprodigiosin or salt thereof” (priority 2002, published 2004)
Counter-ions that a name gives are not always drawn.

Experiments:
AP-1 [1] = experiment: AP-1 luciferase reporter assay (pAPLuc) in HeLa cells; format: cell-based
Experimental: In the same manner as described in Experimental example 1, HeLa cells were transfected with the AP-1 reporter gene plasmid pAPLuc. After 20 hours, the cells were pretreated with cPrG-HCl (1 μM) for 1 hour and then stimulated with TNFα (20 ng/ml) or PMA (1 μg/ml) for 4 hours, after which, luciferase activity was measured. Each activity was corrected for the amount of protein.

IL-8 promoter = IL-8 promoter luciferase assay (pIL-8Luc) in HeLa cells; format: cell-based; conditions: TNFα 20 ng/ml 4 hours, FIG. 7
Experimental: Now in order to analyze the effect of cPrG-HCl on IL-8 gene expression which is controlled by transcription factors such as NF-κB and AP-1, luciferase assay was carried out using a reporter plasmid (pIL-8Luc) in which the luciferase gene is bound downstream of the IL-8 promoter region. In the IL-8 promoter, NF-κB, AP-1, and NF-IL6 binding sequences are present.
The pIL-8Luc was incorporated into HeLa cells by transfection. After 24 hours, the cells were pretreated with cPrG-HCl at a specified concentration for 1 hour and then stimulated with TNFα (20 ng/ml) for 4 hours, after which luciferase activity was measured.

HeLa cells = experiment: Cell viability by trypan blue dye exclusion assay; format: cell-based; conditions: FIG. 1A
Experimental: Cell culture: HeLa cells were cultured in Dulbecco's modified Eagle's medium supplemented with 10% fetal bovine serum and 50 μg/ml kanamycin at 37° C. in 5% CO2 in air.
Assay for apoptotic processes: Cell viability was determined by dye exclusion assay using 0.1% trypan blue. DNA fragmentation was analyzed as described previously (Kawauchi, K. et al. (1997) Biochem. Biophys. Res. Commun. 237, 543-547). In the caspase-3 assay, cells were disrupted by freeze-thaw in an extraction buffer (50 mM Tris-HCl, pH7.4, 1 mM EGTA, 5 mM EDTA, 5 mM MgCl2, 1 mM APMSF, 10 μg/ml pepstatin, 10 μg/ml leupeptin, and 1 mM DTT). Then the suspension was centrifuged at 15,000 rpm for 20 min, and the supernatants obtained were incubated at 37° C. for 60 min in a reaction buffer (50 mM Tris-HCl, pH7.4, 1 mM EDTA, 10 mM EGTA) with 20 μM of the fluorogenic substrate DEVD-AFC (Peptide Institute, Inc., Japan). Cleavage of the substrates was quantified by measuring the fluorescence of 7-amino-4-trifluomethyl coumarin released using a spectrofluorometer (Shimadzu RF5000) with excitation at 380 mn and emission at 460 nm.

AP-1 [2] = experiment: AP-1 luciferase reporter assay in various kinds of cells; format: cell-based, human; African green monkey; conditions: all the cells tested: U373, 293, COS7, MKN45; FIGS. 6A to 6F
Experimental: (§1) In order to find out whether the suppression of NF-κB and AP-1 activation was specific to HeLa cells used above, analysis was made with various kind of cells. The cells used were U373 cells (human brain tumor cells), 293 cells (human embryo-derived kidney cells), COS7 cells (African green monkey kidney-derived cells), and MKN45 cells (human gastric tumor cells).
(§2) The NF-κB reporter plasmid pIG3Luc was incorporated into cells by transfection. After 24 hours, the cells were pretreated with cPrG-HCl at a specified concentration for 1 hour and then stimulated with TNFα (20 ng/ml) or PMA (1 μg/ml) for 4 hours, after which luciferase activity was measured. Each activity was corrected for the amount of protein.

NF-κB = NF-κB luciferase reporter assay in U373, 293, COS7 and MKN45 cells; format: cell-based, human; African green monkey; conditions: all the cells tested: U373, 293, COS7, MKN45; FIGS. 6A to 6F
Experimental: as §1, §2

AP-1 [3] = conditions: earlier abstract of the inventors (Kamata et al., 2000); cited from earlier work

COC1=CC(c2ccc[nH]2)=N/C1=C\c1[nH]c(C)c2c1C(C)CCC2 (centres unmarked) [cPrG-HCl, Cycloprodigiosin hydrochloride]
AP-1 transcriptional activity (AP-1 [1]; HeLa cells, 1 μM, TNFα (20 ng/ml) or PMA (1 μg/ml), FIG. 5): significantly suppressed | PMA-induced AP-1 transcriptional activation (AP-1 [1]; in the presence of imidazole): suppressed | IL-8 promoter-dependent transcriptional activity induced by TNFα (IL-8 promoter): markedly suppressed | cell viability (HeLa cells; cPrG-HCl present upon TNFα stimulation): about 65% | cell viability (HeLa cells; cPrG-HCl treatment alone): slightly decreased | AP-1 transcriptional activation (AP-1 [2]): suppressed | NF-κB transcriptional activation (NF-κB): suppressed | gene expression induction by AP-1 (AP-1 [3]): significantly suppressed
